Measurements published in patent US20110262552A1, “Compositions Comprising Plant Extracts and Use Thereof for Treating Inflammation” (priority 2008, published 2011).

How the values were obtained:
[1] = test system: carrageenan-induced paw edema; experiment: Carrageenin-induced acute inflammation (paw edema) in mice; type: in vivo, CD-1 mice; settings: oral; for % inhibition (hind paw edema): 1 h before intra-plantar carrageenan, edema 4 h after, compositions 1-4 250 mg/kg total, Aspirin 150, Phenylbutazone 30, Celebrex 10, Naproxen 30 mg/kg; for anti-inflammatory activity in carrageenan-induced paw edema assay: doses as in Table V
Description: Male CD-1 (Crl.) derived mice weighing 22±1 g were obtained from BioLasco Taiwan (under Charles River Laboratories Technology Licensee). All animals were housed in a controlled temperature (22° C.-24° C.) and humidity (60%-80%) environment with 12 hours light/dark cycles for at least one week prior to experimental use. The animals had free access to standard lab chow for mice (MF-18 (Oriental Yeast Co., Ltd., Japan) and Reverse Osmosis water was granted. All aspects of the study including housing, experimentation and disposal of animals were performed in general accordance with the Guide for the Care and Use of Laboratory Animals (National Academy Press, Washington, D.C., 1996). Groups of 5 CD-1 male mice were fasted overnight prior to use. The test substances were administered orally one hour before intra-plantar injection of the right hind paw with carrageenan (50 μl of 1% suspension).

[2] = test system: Complete Freund's Adjuvant-induced arthritis (hind paw volume); experiment: Adjuvant-induced arthritis in rats; type: in vivo, Lewis rats; settings: reference drugs oral once daily for 5 days: Phenylbutazone 35, Celebrex 10, Dexamethasone 5 mg/kg
Description: The study was conducted in male Lewis rats obtained from Charles River Japan, Inc. The animals were housed in a controlled temperature (21° C.-24° C.) and humidity (54%-68%) environment with 12 hour light/dark cycles for at least 1 week prior to use. Rats had Laboratory Rodent Diet MF-18 (Oriental Yeast Co., Ltd., Japan) and water (reverse osmosis purified water) ad libitum. The entire study and animal conditions and manipulations were conducted in accordance with the Guide for the Care and Use of Laboratory Animals (National Academy Press, Washington, D.C., 1996).
Eight groups of 5 rats weighing approximately 210±10 g were used. […] A dosing volume of 10 ml/kg was used. A well-ground suspension of killed Mycobacterium tuberculosis (0.3 mg in 0.1 ml of light mineral oil (CFA) was administered in a single dose into the subplantar region of the right hind paw 1 hour following the first dose of the test and reference compositions.
Right hind paw volume was measured 4 hours after single CFA injection (denoted day 1), and on day 5 (acute phase), while the left hind paw (without CFA) volume was measured on day 14 and 18 (delayed phase). Hind paw volume was measured by plethysmometer and water cell (25 mm diameter).

[3] = test system: knee pain associated with arthrosis
From the text: A 10 year old Husky with a history of bilateral rupture of the cruciate ligament had bilateral knee surgery to correct this problem. The animal was also known to have zinc deficiency.
The dog was prescribed metacam for knee pain associated with arthrosis.

| Structure (SMILES) | % inhibition (hind paw edema) [1] [%] | anti-inflammatory activity in carrageenan-induced paw edema assay [1] | % inhibition Day 14-0 [2] | % inhibition Day 18-0 [2] | % inhibition Day 18-14 [2] | pain control / pain relief (clinical examination) ([3]; 10 year old Husky, composition #8 1 gram per 10 kg body weight daily, a few weeks) | intolerance ([3]; dog, in vivo) |
| --- | --- | --- | --- | --- | --- | --- | --- |
| CC(=O)Oc1ccccc1C(=O)O [Aspirin] | 36 | significant anti-inflammatory activity |  |  |  |  |  |
| Cc1ccc(-c2cc(C(F)(F)F)nn2-c2ccc(S(N)(=O)=O)cc2)cc1 [Celebrex] | 23 | significant anti-inflammatory activity | 20% | 25% | 30% |  |  |
| COc1ccc2cc([C@H](C)C(=O)O)ccc2c1 [Naproxen] | 36 | significant anti-inflammatory activity |  |  |  |  |  |
| CCCCC1C(=O)N(c2ccccc2)N(c2ccccc2)C1=O [Phenylbutazone] | 23 |  | 18, 18, 18% | 18, 18, 18% | 18, 18, 18% |  |  |
| Cc1cnc(NC(=O)C2=C(O)c3ccccc3S(=O)(=O)N2C)s1 [metacam] |  |  |  |  |  | only partially controlled | signs of intolerance |
